In publication PMC7607875, “Enhancing the antibacterial activity of antimicrobial peptide PMAP-37(F34-R) by cholesterol modification” (BMC Veterinary Research, 2020):

Assays:
Test in all cases: Inhibition zone assay (Kirby-Bauer disk diffusion)
Format in all cases: cell-based
Parameters in all cases: key: +, peptide have antibacterial activity
Conditions in all cases: disk with 10 μg, 37 °C, 18 h
S. aureus ATCC25923 = tested on: S. aureus ATCC25923
Method: (§1) The antibacterial activity of Chol-37(F34-R) was detected using the Kirby-Bauer diffusion method. Four bacterial strains were used as experimental strains: L. monocytogenes CICC21634 cultured with BHI, P. aeruginosa GIM1.551 cultured with TSB, S. aureus ATCC25923, and S. typhimurium SL1344 cultured with LB medium. Briefly, the bacterial cells were cultured for 12 h at 37 °C in appropriate culture media, and the bacterial cell suspension was spread on the corresponding solid medium. Then, the disks containing 10 μg peptide or ceftiofur sodium were attached to the solid medium and incubated at 37 °C for 18 h. Lastly, the diameter of the inhibition zone was measured.

[1] = tested on: L. monocytogenes CICC21634
Method: as §1

S. typhimurium SL1344 = tested on: S. typhimurium SL1344
Method: as §1

P. aeruginosa GIM1.551 = tested on: P. aeruginosa GIM1.551
Method: as §1

Measured: in vitro antibacterial activity (disk diffusion)

CO/N=C(\C(=O)N[C@@H]1C(=O)N2C(C(=O)[O-])=C(CSC(=O)c3ccco3)CS[C@H]12)c1csc(N)n1.[Na+] [ceftiofur sodium]
+: all assays above
